Test results: patent US12221448B2, “Selective PI3Kδ inhibitor and use thereof” (TARAPEUTICS SCIENCE INC., priority 2018, dated 2025)

Target: T1, PI3Kδ (Homo sapiens, UniProt O00329)
T1 construct: purchased Invitrogen (US)
Assay: In vitro enzyme activity (ADP-Glo) against PI3Kδ
Format: biochemical
Settings: Table 2; ATP 50 μM, PIP2:PS 50 μM
Experimental: (§1) In vitro enzyme activity experiments were performed to determine the IC50 values of the compounds against PI3K family type I kinases (PI3Kα, PI3Kβ, PI3Kγ, PI3Kδ) and type II kinases (PIK3C2A, PIK3C2B). Protein kinases PI3Kα, PI3Kγ, PI3Kδ, PIK3C2A, and PIK3C2B were all purchased from Invitrogen (US); protein kinase PI3Kβ was purchased from sigma (US); the three substrates PIP2: PS, PI and PI: PS were purchased from Invitrogen (US).
(§2) Protein kinases diluted to a certain concentration, i.e., PI3Kα 5.4 μL (with a final concentration of 0.16 ng/μL), PI3Kβ 5.4 μL (with a final concentration of 6 ng/μL), PI3Kδ 5.4 μL (with a final concentration of 1 ng/μL), PI3Kγ 5.4 μL (with a final concentration of 5 ng/μL), PIK3C2A 5.4 μL (with a final concentration of 5 ng/μL), and PIK3C2B 5.4 μL (with a final concentration of 10 ng/μL) were respectively reacted with 1 μL of the serially diluted drug compounds for 1 hour at room temperature (final drug concentrations were 10 μM, 1 μM, 0.3 μM, 0.1 μM, 0.03 μM, 0.01 μM, 0.003 μM, and 0.001 μM, respectively).
(§3) To each reaction tube of the above PI3K family type I kinases, 6 μL of a mixture of ATP (Promega, US) and substrate PIP2:PS (final concentrations of ATP in the reaction systems of kinases PI3Kα, and PI3Kβ were 10 μM, and final concentrations of ATP in the reaction systems of kinases PI3Kδ, and PI3Kγ were 50 μM, and final concentrations of the substrate PIP2:PS were all 50 μM) was added, and reacted at 37° C. for 1 hour. The reaction buffer was 50 mM Hepes (pH 7.5) (Promega, USA), 3 mM MgCl2, 1 mM EGTA (Promega, US), 100 mM NaCl, 0.03% CHAPS (Promega, US).
(§4) 5 μL of kinase solution after reaction was placed in a 384-well plate (Corning, US), and 5 μL of ADP-Glo™ reagent (Promega, US) was added thereto and reacted at room temperature for 40 minutes to stop the kinase reaction and exhaust the remaining ATP; 10 μL of kinase detection reagent was added to convert ADP into ATP, and coupled luciferase/luciferin reaction was utilized to detect the newly synthesized ATP. Envision was utilized for readout and plotting, and Graphpad IC50 value was calculated.

T1 sequence (O00329 whole entry): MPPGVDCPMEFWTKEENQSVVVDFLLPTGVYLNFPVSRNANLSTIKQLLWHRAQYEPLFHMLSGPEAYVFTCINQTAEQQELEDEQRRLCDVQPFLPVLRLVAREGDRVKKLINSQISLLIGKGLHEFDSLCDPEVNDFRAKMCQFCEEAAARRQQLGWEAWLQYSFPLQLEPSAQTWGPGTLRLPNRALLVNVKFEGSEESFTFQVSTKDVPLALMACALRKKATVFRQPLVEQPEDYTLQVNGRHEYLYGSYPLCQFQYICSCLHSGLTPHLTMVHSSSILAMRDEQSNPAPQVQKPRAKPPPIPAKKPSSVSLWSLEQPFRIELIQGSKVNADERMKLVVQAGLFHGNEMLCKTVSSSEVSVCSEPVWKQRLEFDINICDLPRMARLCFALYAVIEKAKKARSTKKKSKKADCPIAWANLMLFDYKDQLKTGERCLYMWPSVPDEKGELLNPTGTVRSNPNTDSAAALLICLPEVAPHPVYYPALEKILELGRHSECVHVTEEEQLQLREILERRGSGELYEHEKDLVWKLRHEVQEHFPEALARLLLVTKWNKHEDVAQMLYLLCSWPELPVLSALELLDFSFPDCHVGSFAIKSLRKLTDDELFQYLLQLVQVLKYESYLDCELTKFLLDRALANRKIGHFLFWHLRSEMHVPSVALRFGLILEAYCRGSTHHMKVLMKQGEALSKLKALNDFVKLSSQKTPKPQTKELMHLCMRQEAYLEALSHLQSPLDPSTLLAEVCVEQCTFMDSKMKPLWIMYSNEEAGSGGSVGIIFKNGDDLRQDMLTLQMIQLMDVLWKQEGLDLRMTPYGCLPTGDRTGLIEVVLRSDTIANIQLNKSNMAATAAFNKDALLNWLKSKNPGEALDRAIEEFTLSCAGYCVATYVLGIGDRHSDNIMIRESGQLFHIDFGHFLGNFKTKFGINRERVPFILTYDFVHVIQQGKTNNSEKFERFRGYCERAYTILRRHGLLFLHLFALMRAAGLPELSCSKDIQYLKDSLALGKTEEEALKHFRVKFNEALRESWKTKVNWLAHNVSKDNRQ
T1 sequence (P27986 whole entry partner): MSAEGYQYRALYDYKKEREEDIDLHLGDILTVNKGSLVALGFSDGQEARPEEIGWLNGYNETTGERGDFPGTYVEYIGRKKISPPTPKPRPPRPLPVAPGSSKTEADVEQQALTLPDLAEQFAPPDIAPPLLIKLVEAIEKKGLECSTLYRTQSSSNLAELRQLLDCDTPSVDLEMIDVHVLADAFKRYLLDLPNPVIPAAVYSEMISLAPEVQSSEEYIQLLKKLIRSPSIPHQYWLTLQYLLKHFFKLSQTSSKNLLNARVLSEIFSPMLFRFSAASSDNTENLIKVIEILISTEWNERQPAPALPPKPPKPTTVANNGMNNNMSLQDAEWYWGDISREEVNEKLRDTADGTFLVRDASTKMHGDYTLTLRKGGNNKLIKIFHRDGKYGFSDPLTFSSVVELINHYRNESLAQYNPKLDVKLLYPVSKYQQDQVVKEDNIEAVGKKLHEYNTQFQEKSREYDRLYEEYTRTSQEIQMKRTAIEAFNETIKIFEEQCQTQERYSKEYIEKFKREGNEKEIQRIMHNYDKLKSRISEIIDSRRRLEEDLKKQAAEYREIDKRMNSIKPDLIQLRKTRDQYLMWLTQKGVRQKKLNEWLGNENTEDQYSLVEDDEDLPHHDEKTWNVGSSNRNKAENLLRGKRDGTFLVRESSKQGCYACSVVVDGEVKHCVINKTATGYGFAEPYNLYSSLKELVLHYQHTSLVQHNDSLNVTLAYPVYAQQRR

Going from `COc1ccc(-c2nn(Cc3nc4cccc(F)c4c(=O)n3C3CCC3)c3ncnc(N)c23)cc1F` [Compound 7, 2-((4-amino-3-(3-fluoro-4-methoxyphenyl)-1H-pyrazolo [3,4-d]pyrimidin-1-yl)methyl)-3-cyclobutyl-5-fluoroquinazolin-4(3H)-one] to `CC[C@H](c1nc2cccc(F)c2c(=O)n1C1CC1)n1nc(-c2ccc(OC)c(F)c2)c2c(N)ncnc21` [Compound 82, 2-((R)-1-(4-amino-3-(3-fluoro-4-methoxyphenyl)-1H-pyrazolo [3,4-d]pyrimidin-1-yl)propyl)-3-cyclopropyl-5-fluoroquinazolin-4(3H)-one], the IC50 falls from 0.0999 µM to 0.0367 µM (2.7-fold).

Compared with `COc1ccc(-c2nn(C(C)c3nc4ccccc4c(=O)n3C3CC3)c3ncnc(N)c23)cc1F` (stereo not drawn) [Compound 10, 2-(1-(4-amino-3-(3-fluoro-4-methoxyphenyl)-1H-pyrazolo [3,4-d]pyrimidin-1-yl)ethyl)-3-cyclopropylquinazolin-4(3H)-one], `COc1ccc(-c2nn(C(C)c3nc4ccccc4c(=O)n3C3CC3)c3ncnc(N)c23)cc1C` (stereo not drawn) [Compound 44, 2-(1-(4-amino-3-(4-methoxy-3-methylphenyl)-1H-pyrazolo [3,4-d]pyrimidin-1-yl)ethyl)-3-cyclopropylquinazolin-4(3H)-one] is 6.2-fold higher in IC50: 0.0064 µM for the first, 0.0398 µM for the second. The first is the more potent here.

Compared with `CC(c1nc2cccc(F)c2c(=O)n1C1CCCC1)n1nc(-c2cccc(F)c2)c2c(N)ncnc21` (stereo not drawn) [Compound 12, 2-(1-(4-amino-3-(3-fluorophenyl)-1H-pyrazolo [3,4-d]pyrimidin-1-yl)ethyl)-3-cyclopentyl-5-fluoroquinazolin-4(3H)-one], `Cc1ccc(-c2nn(C(C)c3nc4cccc(F)c4c(=O)n3C3CCCC3)c3ncnc(N)c23)cc1F` (stereo not drawn) [Compound 25, 2-(1-(4-amino-3-(3-fluoro-4-methylphenyl)-1H-pyrazolo [3,4-d]pyrimidin-1-yl)ethyl)-3-cyclopentyl-5-fluoroquinazolin-4(3H)-one] is 4.7-fold lower in IC50: 0.082 µM for the first, 0.0175 µM for the second.

Going from `CC(C)c1ccc(-c2nn(C(C)c3nc4cccc(F)c4c(=O)n3C3CCCC3)c3ncnc(N)c23)cc1` (stereo not drawn) [Compound 24, 2-(1-(4-amino-3-(4-isopropylphenyl)-1H-pyrazolo [3,4-d]pyrimidin-1-yl)ethyl)-3-cyclopentyl-5-fluoroquinazolin-4(3H)-one] to `CC(C)c1ccc(-c2nn(C(C)c3nc4cccc(F)c4c(=O)n3C3CCC3)c3ncnc(N)c23)cc1` (stereo not drawn) [Compound 28, 2-(1-(4-amino-3-(4-isopropylphenyl)-1H-pyrazolo [3,4-d]pyrimidin-1-yl)ethyl)-3-cyclobutyl-5-fluoroquinazolin-4(3H)-one], the IC50 rises from 0.0215 µM to 0.0833 µM (3.9-fold).

Compared with `CC(c1nc2cccc(F)c2c(=O)n1C1CCCC1)n1nc(-c2cnc3ccccc3c2)c2c(N)ncnc21` (stereo not drawn) [Compound 26, 2-(1-(4-amino-3-(quinolin-3-yl)-1H-pyrazolo [3,4-d]pyrimidin-1-yl)ethyl)-3-cyclopentyl-5-fluoroquinazolin-4(3H)-one], `COc1ccc(-c2nn(C(C)c3nc4cccc(F)c4c(=O)n3C3CCCC3)c3ncnc(N)c23)cc1C` (stereo not drawn) [Compound 36, 2-(1-(4-amino-3-(4-methoxy-3-methylphenyl)-1H-pyrazolo [3,4-d]pyrimidin-1-yl)ethyl)-3-cyclopentyl-5-fluoroquinazolin-4(3H)-one] is 3.4-fold lower in IC50: 0.0557 µM for the first, 0.0162 µM for the second.

Going from `COc1ccc(-c2nn(C(C)c3nc4c(Cl)cccc4c(=O)n3C3CCC3)c3ncnc(N)c23)cc1F` (stereo not drawn) [Compound 29, 2-(1-(4-amino-3-(3-fluoro-4-methoxyphenyl)-1H-pyrazolo [3,4-d]pyrimidin-1-yl)ethyl)-8-chloro-3-cyclobutylquinazolin-4(3H)-one] to `COc1ccc(-c2nn(C(C)c3nc4cccc(F)c4c(=O)n3C3CCC3)c3ncnc(N)c23)cc1C` (stereo not drawn) [Compound 34, 2-(1-(4-amino-3-(4-methoxy-3-methylphenyl)-1H-pyrazolo [3,4-d]pyrimidin-1-yl)ethyl)-3-cyclobutyl-5-fluoroquinazolin-4(3H)-one], the IC50 falls from 0.0773 µM to 0.0418 µM (1.8-fold). The second is the more potent here.

`CC(c1nc2cccc(F)c2c(=O)n1C1CCC1)n1nc(-c2ccc3c(c2)OCO3)c2c(N)ncnc21` (stereo not drawn) [Compound 35, 2-(1-(4-amino-3-(benzo[d][1,3]dioxol-5-yl)-1H-pyrazolo [3,4-d]pyrimidin-1-yl)ethyl)-3-cyclobutyl-5-fluoroquinazolin-4(3H)-one] and `CC(c1nc2cccc(F)c2c(=O)n1C1CCCC1)n1nc(-c2ccc3c(c2)OCO3)c2c(N)ncnc21` (stereo not drawn) [Compound 46, 2-(1-(4-amino-3-(benzo[d][1,3]dioxol-5-yl)-1H-pyrazolo [3,4-d]pyrimidin-1-yl)ethyl)-3-cyclopentyl-5-fluoroquinazolin-4(3H)-one] are within 1.5-fold of each other in IC50: 0.0262 µM for the first, 0.0347 µM for the second.

`COc1ccc(-c2nn(C(C)c3nc4ccccc4c(=O)n3C3CCC3)c3ncnc(N)c23)cc1C` (stereo not drawn) [Compound 39, 2-(1-(4-amino-3-(4-methoxy-3-methylphenyl)-1H-pyrazolo [3,4-d]pyrimidin-1-yl)ethyl)-3-cyclobutylquinazolin-4(3H)-one] and `COc1ccc(-c2nn(C(C)c3nc4ccccc4c(=O)n3C3CC3)c3ncnc(N)c23)cc1` (stereo not drawn) [Compound 45, 2-(1-(4-amino-3-(4-methoxyphenyl)-1H-pyrazolo [3,4-d]pyrimidin-1-yl)ethyl)-3-cyclopropylquinazolin-4(3H)-one] are within 1.5-fold of each other in IC50: 0.0235 µM for the first, 0.0272 µM for the second.

Going from `CCC(c1nc2cccc(F)c2c(=O)n1C1CC1)n1nc(-c2ccc(OC)cc2)c2c(N)ncnc21` (stereo not drawn) [Compound 40, 2-(1-(4-amino-3-(4-methoxyphenyl)-1H-pyrazolo [3,4-d]pyrimidin-1-yl)propyl)-3-cyclopropyl-5-fluoroquinazolin-4(3H)-one] to `CCC(c1nc2cccc(F)c2c(=O)n1C1CC1)n1nc(-c2ccc(OC)nc2)c2c(N)ncnc21` (stereo not drawn) [Compound 50, 2-(1-(4-amino-3-(6-methoxypyridin-3-yl)-1H-pyrazolo [3,4-d]pyrimidin-1-yl)propyl)-3-cyclopropyl-5-fluoroquinazolin-4(3H)-one], the IC50 rises from 0.0289 µM to 0.0485 µM (1.7-fold).

First: Cc1ccc(-c2nn(C(C)c3nc4ccc(F)cc4c(=O)n3C3CC3)c3ncnc(N)c23)cc1F (stereo not drawn) [Compound 43, 2-(1-(4-amino-3-(3-fluoro-4-methylphenyl)-1H-pyrazolo [3,4-d]pyrimidin-1-yl)ethyl)-3-cyclopropyl-6-fluoroquinazolin-4-(3H)-one]
Second: CCC(c1nc2cc(F)c(F)cc2c(=O)n1C1CC1)n1nc(-c2ccc(OC)c(F)c2)c2c(N)ncnc21 (stereo not drawn) [Compound 56, 2-(1-(4-amino-3-(3-fluoro-4-methoxyphenyl)-1H-pyrazolo [3,4-d]pyrimidin-1-yl)propyl)-3-cyclopropyl-6,7-difluoroquinazolin-4(3H)-one]
The IC50 of the first is 2.1-fold lower: 0.0273 µM for the first, 0.0567 µM for the second. The first is the more potent here.

`CCC(c1nc2cccc(F)c2c(=O)n1C1CC1)n1nc(-c2ccc(OC)c(OC)c2)c2c(N)ncnc21` (stereo not drawn) [Compound 47, 2-(1-(4-amino-3-(3,4-dimethoxyphenyl)-1H-pyrazolo [3,4-d]pyrimidin-1-yl)propyl)-3-cyclopropyl-5-fluoroquinazolin-4(3H)-one] and `COc1ccc(-c2nn(C(C)c3nc4cccc(F)c4c(=O)n3C3CCC3)c3ncnc(N)c23)cn1` (stereo not drawn) [Compound 54, 2-(1-(4-amino-3-(6-methoxypyridin-3-yl)-1H-pyrazolo [3,4-d]pyrimidin-1-yl)ethyl)-3-cyclobutyl-5-fluoroquinazolin-4(3H)-one] are within 1.5-fold of each other in IC50: 0.0321 µM for the first, 0.039 µM for the second.

`CC(=O)Nc1ccc(-c2nn(C(C)c3nc4cccc(F)c4c(=O)n3C3CCC3)c3ncnc(N)c23)cc1` (stereo not drawn) [Compound 53, N-(4-(4-amino-1-(1-(3-cyclobutyl-5-fluoro-4-oxo-3,4-dihydroquinazolin-2-yl)ethyl)-1H-pyrazolo[3,4-d]pyrimidin-3-yl)phenyl)acetamide] gave an IC50 of 0.0438 µM.

Target: T2, PI3Kβ (Homo sapiens, UniProt P42338)
T2 construct: purchased sigma (US)
Assay: In vitro enzyme activity (ADP-Glo) against PI3Kβ
Format: biochemical
Settings: Table 2; ATP 10 μM, PIP2:PS 50 μM; read-out: IC50 against PI3Kβ
Experimental: as §1, §2, §3, §4

T2 sequence (P42338 whole entry): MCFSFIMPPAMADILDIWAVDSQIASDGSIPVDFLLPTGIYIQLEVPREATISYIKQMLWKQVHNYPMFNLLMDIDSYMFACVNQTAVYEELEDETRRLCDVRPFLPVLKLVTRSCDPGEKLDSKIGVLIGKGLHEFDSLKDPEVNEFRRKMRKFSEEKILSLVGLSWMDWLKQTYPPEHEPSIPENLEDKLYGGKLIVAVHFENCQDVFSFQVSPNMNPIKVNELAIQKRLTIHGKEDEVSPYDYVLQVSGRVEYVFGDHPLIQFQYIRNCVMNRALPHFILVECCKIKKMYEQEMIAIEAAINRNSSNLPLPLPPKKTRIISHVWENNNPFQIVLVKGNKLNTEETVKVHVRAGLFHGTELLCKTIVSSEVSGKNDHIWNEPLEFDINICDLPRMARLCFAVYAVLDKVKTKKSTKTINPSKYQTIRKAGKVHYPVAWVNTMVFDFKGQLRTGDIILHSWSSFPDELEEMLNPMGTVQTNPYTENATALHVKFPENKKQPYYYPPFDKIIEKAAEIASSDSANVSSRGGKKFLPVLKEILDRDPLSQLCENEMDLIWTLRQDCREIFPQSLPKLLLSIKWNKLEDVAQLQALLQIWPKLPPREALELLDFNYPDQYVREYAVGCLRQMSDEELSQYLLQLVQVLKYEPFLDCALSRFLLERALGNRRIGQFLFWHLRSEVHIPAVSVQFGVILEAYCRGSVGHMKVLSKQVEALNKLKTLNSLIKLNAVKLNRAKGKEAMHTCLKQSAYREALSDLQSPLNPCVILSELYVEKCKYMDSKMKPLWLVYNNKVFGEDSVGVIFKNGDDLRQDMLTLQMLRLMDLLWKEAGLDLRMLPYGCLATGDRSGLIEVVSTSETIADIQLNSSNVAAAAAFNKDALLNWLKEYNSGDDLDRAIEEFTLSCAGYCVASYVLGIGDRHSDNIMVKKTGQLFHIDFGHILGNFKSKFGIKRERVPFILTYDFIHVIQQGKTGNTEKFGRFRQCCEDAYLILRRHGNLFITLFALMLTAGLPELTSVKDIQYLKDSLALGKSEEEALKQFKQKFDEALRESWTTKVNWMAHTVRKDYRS
T2 sequence (P27986 whole entry partner): as the sequence (P27986 whole entry partner) above

`COc1ccc(-c2nn(C(C)c3nc4ccccc4c(=O)n3C3CC3)c3ncnc(N)c23)cc1F` (stereo not drawn) [Compound 10, 2-(1-(4-amino-3-(3-fluoro-4-methoxyphenyl)-1H-pyrazolo [3,4-d]pyrimidin-1-yl)ethyl)-3-cyclopropylquinazolin-4(3H)-one] gave an IC50 of 0.122 µM.

Same assay, conditions: Table 3; ATP 10 μM, PIP2:PS 50 μM; read-out: IC50 PIK3β

Compound `CC(C)Oc1ccc(-c2nn([C@@H](C)c3oc4ccc(F)cc4c(=O)c3-c3cccc(F)c3)c3ncnc(N)c23)cc1F` [TGR1202, reference compound] has an IC50 greater than 10 µM.

Target: T3, PI3Kγ (Homo sapiens, UniProt P48736)
T3 construct: purchased Invitrogen (US)
Assay: In vitro enzyme activity (ADP-Glo) against PI3Kγ
Format: biochemical
Settings: Table 2; ATP 50 μM, PIP2:PS 50 μM; read-out: IC50 against PI3Kγ
Experimental: as §1, §2, §3, §4

T3 sequence (P48736 whole entry): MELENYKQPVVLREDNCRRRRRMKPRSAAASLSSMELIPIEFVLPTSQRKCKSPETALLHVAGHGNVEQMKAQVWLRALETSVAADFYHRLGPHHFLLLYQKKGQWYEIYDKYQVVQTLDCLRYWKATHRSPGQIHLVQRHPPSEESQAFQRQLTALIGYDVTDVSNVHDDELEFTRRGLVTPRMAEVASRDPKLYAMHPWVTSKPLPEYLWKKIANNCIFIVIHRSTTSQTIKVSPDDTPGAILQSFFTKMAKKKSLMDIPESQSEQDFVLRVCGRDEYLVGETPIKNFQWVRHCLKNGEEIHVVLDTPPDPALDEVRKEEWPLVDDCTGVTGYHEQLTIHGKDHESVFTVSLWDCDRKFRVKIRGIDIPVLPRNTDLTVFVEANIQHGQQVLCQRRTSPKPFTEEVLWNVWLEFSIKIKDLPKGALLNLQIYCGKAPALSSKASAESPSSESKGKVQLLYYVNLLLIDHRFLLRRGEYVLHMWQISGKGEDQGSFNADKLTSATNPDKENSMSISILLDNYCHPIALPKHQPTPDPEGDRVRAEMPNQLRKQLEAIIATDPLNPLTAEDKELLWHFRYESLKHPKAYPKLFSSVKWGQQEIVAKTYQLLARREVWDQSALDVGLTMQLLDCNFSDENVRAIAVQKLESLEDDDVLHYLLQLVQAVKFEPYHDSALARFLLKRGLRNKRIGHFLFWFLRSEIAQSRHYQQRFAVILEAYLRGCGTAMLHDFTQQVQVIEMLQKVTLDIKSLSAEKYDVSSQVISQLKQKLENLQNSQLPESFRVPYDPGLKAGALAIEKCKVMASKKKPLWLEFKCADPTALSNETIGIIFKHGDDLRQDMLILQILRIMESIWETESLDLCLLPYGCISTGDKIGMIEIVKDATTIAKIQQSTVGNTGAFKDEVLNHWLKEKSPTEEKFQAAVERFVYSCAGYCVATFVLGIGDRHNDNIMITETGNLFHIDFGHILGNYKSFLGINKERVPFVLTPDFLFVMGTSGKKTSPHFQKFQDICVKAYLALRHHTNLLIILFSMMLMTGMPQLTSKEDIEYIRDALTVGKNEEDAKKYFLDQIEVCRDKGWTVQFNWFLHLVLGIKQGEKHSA

For `COc1ccc(-c2nn(C(C)c3nc4ccccc4c(=O)n3C3CC3)c3ncnc(N)c23)cc1F` (stereo not drawn) [Compound 10, 2-(1-(4-amino-3-(3-fluoro-4-methoxyphenyl)-1H-pyrazolo [3,4-d]pyrimidin-1-yl)ethyl)-3-cyclopropylquinazolin-4(3H)-one], the IC50 was 0.103 µM.

Same assay, conditions: Table 3; ATP 50 μM, PIP2:PS 50 μM; read-out: IC50 PIK3γ

With `CC(C)Oc1ccc(-c2nn([C@@H](C)c3oc4ccc(F)cc4c(=O)c3-c3cccc(F)c3)c3ncnc(N)c23)cc1F` [TGR1202, reference compound] the IC50 was 0.362 µM.
